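Tested at 5 concentrations; 48 h exposure; 96-well plates; endpoints linearly interpolated, else capped at highest concentration. GI50 = concentration required for 50% inhibition of growth.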 The source made the active and inactive calls. Cut-off read from the data, not from the text of the source: active = GI50 up to about 1.1 µM and inactive = higher.
How the values were obtained:
Assay in all cases: NCI tumour cell line growth inhibition, 48 h
[1] = system: T47D
[2] = system: DU-145
[3] = system: MDA-MB-231
[4] = system: SK-MEL-28
[5] = system: HCT-15
[6] = system: HT-29
[7] = system: Hs-578T
[8] = system: NCI-H522
[9] = system: UO-31
[10] = system: Malme-3M
[11] = system: SK-MEL-2
[12] = system: SK-MEL-5
[13] = system: UACC-257
[14] = system: HCC 2998
[15] = system: HL-60
[16] = system: SF-539
[17] = system: MCF7
[18] = system: A549
[19] = system: SW-620
[20] = system: OVCAR-4
[21] = system: HOP-92
[22] = system: OVCAR-8
[23] = system: HCT-116
[24] = system: RPMI-8226
[25] = system: IGROV-1
[26] = system: HOP-62
[27] = system: K562
[28] = system: EKVX
[29] = system: MDA-MB-435
[30] = system: 786-0
[31] = system: MDA-N
[32] = system: NCI/ADR-RES
[33] = system: CCRF-CEM
[34] = system: RXF 393
[35] = system: SF-295
[36] = system: LOX IMVI
[37] = system: MOLT-4
[38] = system: OVCAR-5
[39] = system: TK-10
[40] = system: OVCAR-3
[41] = system: SNB-19
[42] = system: ACHN
[43] = system: SR
[44] = system: NCI-H23
[45] = system: PC-3
[46] = system: SF-268
[47] = system: A498
[48] = system: SK-OV-3
[49] = system: CAKI-1
[50] = system: M14
[51] = system: U-251
[52] = system: NCI-H460
[53] = system: COLO 205
[54] = system: UACC-62
[55] = system: KM12
[56] = system: BT-549
[57] = system: NCI-H226
[58] = system: SN12C
[59] = system: SNB-75

Measured: GI50

COC(=O)c1c2c(cc3c1CC1(Cc4cc5c(c(C)c4C1)CCC5)C3)CCC2 (stereo unspecified)
inactive: [1] > 100 µM | [2] > 100 µM | [3] > 100 µM | [4] > 100 µM | [6] > 100 µM | [7] > 100 µM | [8] > 100 µM | [9] > 100 µM | [10] > 100 µM | [11] > 100 µM | [12] > 100 µM | [13] > 100 µM | [14] > 100 µM | [15] > 100 µM | [16] > 100 µM | [17] > 100 µM | [18] > 100 µM | [19] > 100 µM | [20] > 100 µM | [21] > 100 µM | [22] > 100 µM | [23] > 100 µM | [24] > 100 µM | [25] > 100 µM | [26] > 100 µM | [27] > 100 µM | [28] > 100 µM | [29] > 100 µM | [30] > 100 µM | [31] > 100 µM | [32] > 100 µM | [33] > 100 µM | [34] 90.4 µM | [35] > 100 µM | [36] > 100 µM | [37] > 100 µM | [38] > 100 µM | [39] > 100 µM | [40] > 100 µM | [41] > 100 µM | [42] > 100 µM | [43] > 100 µM | [44] > 100 µM | [45] > 100 µM | [46] > 100 µM | [47] > 100 µM | [48] > 100 µM | [49] > 100 µM | [50] > 100 µM | [51] > 100 µM | [52] > 100 µM
> 100 µM: [5]

CC(C)(C)/N=C1\C(=O)C2(C)CCC1C2(C)C (stereo unspecified)
> 100 µM: [5]
inactive: [1] > 100 µM | [2] > 100 µM | [3] > 100 µM | [4] > 100 µM | [6] > 100 µM | [9] > 100 µM | [10] > 100 µM | [11] > 100 µM | [12] > 100 µM | [13] > 100 µM | [14] > 100 µM | [53] > 100 µM | [16] > 100 µM | [17] 16.8 µM | [18] > 100 µM | [19] > 100 µM | [20] > 100 µM | [22] > 100 µM | [23] > 100 µM | [24] > 100 µM | [25] > 100 µM | [26] > 100 µM | [27] > 100 µM | [28] > 100 µM | [29] > 100 µM | [30] > 100 µM | [54] 14.3 µM | [55] > 100 µM | [32] > 100 µM | [34] > 100 µM | [35] > 100 µM | [36] > 100 µM | [38] > 100 µM | [39] > 100 µM | [40] > 100 µM | [41] > 100 µM | [42] > 100 µM | [43] > 100 µM | [44] > 100 µM | [45] > 100 µM | [46] > 100 µM | [47] 16.4 µM | [48] > 100 µM | [49] > 100 µM | [50] > 100 µM | [56] > 100 µM | [57] > 100 µM | [51] > 100 µM | [52] > 100 µM

Nc1ccc(/C=C/c2ccc3cccnc3c2)cc1
inactive: [1] 92.9 µM | [2] > 100 µM | [3] > 100 µM | [4] > 100 µM | [6] > 100 µM | [7] > 100 µM | [9] > 100 µM | [10] > 100 µM | [12] > 100 µM | [13] > 100 µM | [14] > 100 µM | [53] > 100 µM | [15] 4.61 µM | [16] > 100 µM | [17] 5.81 µM | [18] > 100 µM | [19] > 100 µM | [21] > 100 µM | [22] > 100 µM | [23] > 100 µM | [24] 2.26 µM | [26] > 100 µM | [58] > 100 µM | [27] > 100 µM | [28] > 100 µM | [29] > 100 µM | [30] > 100 µM | [54] > 100 µM | [55] > 100 µM | [31] > 100 µM | [32] > 100 µM | [33] > 100 µM | [34] > 100 µM | [35] > 100 µM | [36] > 100 µM | [37] > 100 µM | [38] > 100 µM | [39] > 100 µM | [40] > 100 µM | [59] > 100 µM | [41] > 100 µM | [42] 52.5 µM | [43] > 100 µM | [44] > 100 µM | [45] > 100 µM | [46] > 100 µM | [47] > 100 µM | [48] > 100 µM | [49] 90.8 µM | [50] > 100 µM | [57] > 100 µM | [51] > 100 µM | [52] > 100 µM
> 100 µM: [5]

Source: ChEMBL document CHEMBL1201862, “PubChem BioAssay data set” (2004)
